Results published in patent publication US6596854B2, “Isolated nucleic acid molecule encoding a variant human eukaryotic Intiation Factor 4E protein” (Emory University, priority 1996, dated 2003).
Entries after “also recorded” stand apart in the source; their conditions may differ.

Experiments:
eIF-4E = target: T1, eIF-4E (Homo sapiens, UniProt P06730); assay: Photoaffinity labeling of eIF-4E with labeled GTP analog; type: binding; settings: competition and saturation
T1 construct: made in house; host or cells: E. coli BL21(DE3), pET-3d
Text: Studies on the binding site of eIF-4E have defined a sequence of amino acids, involved in binding m^7G-RNA extending approximately from positions 112-123, numbering from the translation start site. The region of amino acids involved in the binding of eIF-4E to m^7G-RNA was identified using photoaffinity labeling with a labeled analog, [γ-^32P] 8-N3GTP. [Jayaram, B. et al. (1994) J. Biol. Chem. 269:3233-3242; Shoemaker, M. T. et al. (1993) J. Biol. Chem. 32:1883-1890; Salvucci, M. E. et al. (1992) Biochemistry 31:4479-4487]. […] The analog binding to eIF-4E was rendered irreversible by a photo-chemical reaction and a tryptic peptide bearing the analog label was isolated by aluminum-III chelate chromatography and reverse phase HPLC. Once the binding region peptide was identified, it was then possible to employ alanine-scanning mutations to determine the contribution of specific amino acid residues to the binding, and to generate modified eIF-4E proteins with altered binding affinities. Modified eIF-4E analog proteins having either increased or decreased binding affinities have been made. […] Enhanced binding affinity can lead to increased capped RNA stability and increased duration of expression. Decreased binding affinity can be of value where sensitivity to regulatory influences is desired. […]

[1] = tested on: translation of globin mRNA; assay: Cell-free translation in eIF-4E-depleted rabbit reticulocyte lysates; type: biochemical
Experimental: Translational activity of eIF-4E variants: The ability of eIF-4E variants to initiate translation was examined in rabbit reticulocyte lysates which were depleted of endogenous eIF-4E by m^7GTP-Sepharose chromatography [Svitkin Y. V. et al. (1996) EMBO J. 15:7147-7155]. Western blotting analysis using anti-eIF-4E antibodies detected no eIF-4E in lysates after chromatography. […] The relative abilities of eIF-4E variants to restore globin mRNA translation were tested for all variants except W113A.
Cell-free translations: Nuclease-treated rabbit reticulocyte lysates (Promega) were depleted of endogenous eIF-4E by chromatography on m^7GTP-Sepharose according to the previously described protocol (Svitkin et al. 1996, supra). Aliquots of eIF-4E-depleted lysates were stored in liquid nitrogen vapor. eIF-4E depletion was verified by Western blotting analysis (data not shown). Cell-free translations were performed at 30° C. as described in detail in the Promega technical manual. […] In the case of L117A, which was not highly purified, a sufficient quantity of the preparation was added to approximate 75 ng of L117A. […] Dried filter papers were placed in vials with scintillation liquid and [^35S]methionine incorporated into protein was quantitated by liquid scintillation spectrometry.

[2] = type: physicochemical, E. coli
Experimental: Purification was carried out essentially as described by Hagedorn, et al. (1997) Protein Expression and Purif. 9:53-60, which is incorporated herein by reference. BL21(DE3) cells expressing human eIF-4E were grown in M9ZB media with ampicillin to an OD600 of 0.6-0.7 at which time cultures were induced with 0.4 mM IPTG [Studier, F. W. et al. (1990) supra]. […] Culture media was centrifuged at 500×g for 15 min, and E. coli pellets were suspended in 3 ml of 50 mM Tris-HCl pH 8.0, 100 mM KCl, 1 mM EDTA, 1 mM DTT, 1 mM PMSF, and 0.1 mg/ml lysozyme per gram wet weight. Samples were stirred intermittently on ice for 15 min and sonicated. Triton X-100 was added to a final concentration of 0.1%. The samples were mixed for 15 min at 4° C. and centrifuged at 15,000 rpm in a Sorvall SS-34 rotor for 20 min. Supernatants were used as starting material for subsequent chromatography purification steps.
In order to assess the solubility of each variant, cells were lysed and centrifuged as described supra. Supernatants prepared from equivalent wet weights of cells were analyzed by SDS-PAGE and Western blotting with anti-eIF-4E antibodies. Supernatants from all variants contained soluble eIF-4E. […] Except for the W113A and L117A variants, no major differences in solubility were observed among the other alanine variants studied.

[3] = target: m^7GTP (mRNA cap structure); assay: Fluorescence quenching of intrinsic tryptophan of eIF-4E upon m^7GTP binding
Experimental: FIGS. 4A and 4B. […] The fluorescence intensity of recombinant human eIF-4E binding to m^7GTP as a function of m^7GTP concentration was measured. All solutions were prepared in buffer A at pH 7.6, 25° C. and the concentration of eIF-4E was 1 μM. An excitation wave length of 280 nm was used to monitor the fluorescence intensity at 330 nm.
Fluorescence measurements were made at 25° C. on a SPEX Fluorolog-T2 spectrofluorometer equipped with a high intensity (450 w) xenon arc lamp. An excitation wave length of 280 nm was used to monitor the tryptophan fluorescence emission of recombinant eIF-4E at 330 nm. Excitation and emission slit widths of 1.4 and 2.0 mm respectively were used and a 1.0 cm sample cell pathlength was employed. The buffer used for all fluorescence measurements was 20 mM HEPES at pH 7.6 and 1 mM DTT (designated Buffer A in FIG. 4). The steady state data were collected and analyzed as described previously [Carberry, S. E. et al. (1989) Biochemistry 28:8078-8083; Carberry, S. E. et al. (1990) Biochemistry 29:3337-3341. An excitation wavelength of 289 nm was used to monitor the tryptophan fluorescence emission of the proteins. Excitation and emission slit widths of 1.5 mm and 2.0 mm respectively were used and cell path length was 1.0 cm.
The preparation of large quantities of recombinant eIF-4E variants allowed us to directly determine the Kd of binding to the mRNA cap structure. Quantitation was performed by measuring the fluorescence quenching of intrinsic tryptophan residues in eIF-4E upon m^7GTP binding at 25≅ C. (Example 3). […] This is possibly a consequence of a lower stability of these variants at the higher temperature in the fluorescence quenching assay.

T1 sequence (P06730 whole entry): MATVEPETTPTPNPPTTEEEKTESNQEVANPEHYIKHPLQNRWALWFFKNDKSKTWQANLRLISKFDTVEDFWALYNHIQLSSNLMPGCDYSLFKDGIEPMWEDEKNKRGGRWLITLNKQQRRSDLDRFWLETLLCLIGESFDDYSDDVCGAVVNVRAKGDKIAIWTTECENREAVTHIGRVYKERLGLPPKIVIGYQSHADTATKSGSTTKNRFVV

## [N-]=[N+]=Nc1nc2c(=O)[nH]c(N)nc2n1C1OC(COP(=O)(O)OP(=O)(O)O[32P](=O)(O)O)C(O)C1O (centres unmarked) [[γ-^32P] 8-N3GTP]
eIF-4E
  binding of analog to eIF-4E: bind to eIF-4E in competition with m^7GTP and with capped RNA; also recorded: the binding site was saturated by the analog

## Cn1c[n+]([C@@H]2O[C@H](COP(=O)(O)OP(=O)([O-])O)[C@@H](O)[C@H]2O)c2nc(N)[nH]c(=O)c21 [m^7GDP, reference compound]
[1]; added to incubation containing wild-type eIF-4E
  effect on eIF-4E-dependent translation: inhibited the eIF-4E-dependent translation

## wild-type eIF-4E: purified recombinant human eukaryotic Initiation Factor 4E expressed in E. coli, non-phosphorylated
[2]
  fraction of eIF-4E expressed in E. coli that was soluble: Note: Approximately 1-5% of the eIF-4E expressed in E. coli was soluble as estimated by Coomassie blue staining of SDS-PAGE analyzed samples.
[3]; Kd for m^7GTP, fluorescence quenching, 25 C, read-out: Binding constant Kd
  Kd: 0.14 µM
[3]; binding to m^7GTP, pH 7.6 (20 mM HEPES buffer+1 mM DTT), 25° C.
  equilibrium binding constant: 10.1±0.3 ×10^5M^−1
[3]; compared with Carberry 1989
  equilibrium binding constant relative to results obtained using native human eIF-4E: 1.5-2 times higher
[3]; in vitro, worded as binding to m^7G-RNA
  binding constant: 10.1±0.3 ×10^5M^−1
[1]; addition to eIF-4E-depleted lysate
  increase in the translation of globin mRNA: 2-4 fold
